Columns and labels:
[1] = logP by HPLC on reverse-phase column (EEC Directive 79/831 Annex V.A8); type: physicochemical
Experimental: The logP values reported in the above Tables and Preparation Examples were determined according to EEC Directive 79/831 Annex V.A8 by HPLC (High Performance Liquid Chromatography) on a reverse-phase column (C18). Temperature 43° C.

[2] = test system: green peach aphid (Myzus persicae); assay: Myzus test (MYZUPE spray treatment), Example 17; type: in vivo; conditions: china cabbage leaf discs sprayed, after 6 days
Experimental: Myzus Test (MYZUPE Spray Treatment)
• Solvent: 78 parts by weight of acetone • 1.5 parts by weight of dimethylformamide • Emulsifier: 0.5 part by weight of alkylaryl polyglycol ether
To prepare an appropriate active ingredient formulation, 1 part by weight of active ingredient is mixed with the stated amounts of solvent and emulsifier, and the concentrate is diluted with emulsifier-containing water to the desired concentration. Leaf discs from china cabbage (Brassica pekinensis) infested by all stages of the green peach aphid (Myzus persicae) are sprayed with an active ingredient formulation of the desired concentration.
After 6 days, the efficacy in % is determined. 100% means that all aphids were killed; 0% means that no aphids were killed.

[3] = test system: armyworm (Spodoptera frugiperda); assay: Spodoptera frugiperda test (SPODFR spray treatment), Example 15; type: in vivo; conditions: maize leaf discs sprayed, after 7 days
Experimental: Spodoptera frugiperda Test (SPODFR Spray Treatment)
(§1) • Solvent: 78.0 parts by weight of acetone • 1.5 parts by weight of dimethylformamide • Emulsifier: 0.5 part by weight of alkylaryl polyglycol ether
(§2) To prepare an appropriate active ingredient formulation, 1 part by weight of active ingredient is mixed with the stated amounts of solvent and emulsifier, and the concentrate is diluted with emulsifier-containing water to the desired concentration. Leaf discs from maize (Zea mays) are sprayed with an active ingredient formulation of the desired concentration and, after drying, populated with caterpillars of the armyworm (Spodoptera frugiperda).
After 7 days, the efficacy in % is determined. 100% means that all caterpillars were killed; 0% means that no caterpillars were killed.

[4] = test system: mustard beetle (Phaedon cochleariae); assay: Phaedon test (PHAECO spray treatment), Example 7; type: in vivo; conditions: application rate 20 g/ha, china cabbage leaf discs sprayed, after 7 days
Experimental: Phaedon Test (PHAECO Spray Treatment)
as §1
as §2, with “an” for “an appropriate”, “china cabbage (Brassica pekinensis)” for “maize (Zea mays)”, “larvae” for “caterpillars”, “mustard beetle (Phaedon cochleariae).” for “armyworm (Spodoptera frugiperda).”
After 7 days, the efficacy in % is determined. 100% means that all beetle larvae were killed; 0% means that no beetle larvae were killed.

Boophilus microplus = Boophilus microplus test (BOOPMI injection), Example 11; type: in vivo; conditions: application rate 20 μg/animal, injected into abdomen, after 7 days
Experimental: Boophilus microplus Test (BOOPMI Injection) • Solvent: dimethyl sulphoxide To prepare an appropriate active ingredient formulation, 10 mg of active ingredient are mixed with 0.5 ml of solvent and the concentrate is diluted with solvent to the desired concentration. The active ingredient solution is injected into the abdomen (Boophilus microplus), and the animals are transferred to dishes and stored in a climate-controlled room. The efficacy was assessed by the number of fertile eggs laid. After 7 days, the efficacy in % is determined. 100% means that none of the ticks has laid any fertile eggs.

[5] = HPLC-MS, HPLC on reverse-phase column
[6] = HPLC, C18 reverse phase, 43° C., acidic range pH 2.7, calibration with alkan-2-ones

| Compound | logP ([1]; HPLC-MS) | efficacy in % ([2]; application rate 100 g/ha) [%] | efficacy in % ([3]; application rate 100 g/ha) [%] | further results |
| --- | --- | --- | --- | --- |
| CC(NC(=O)c1ccc(C=CC(=O)NC(c2cccc(C(F)(F)F)c2)C(F)(F)F)cc1Cl)c1nccs1 (mixture of isomers) [Ia-187] | HPLC-MS: logP = 3.4; mass | 80 |  |  |
| CC(C)ONC(=O)c1ccc(/C=C/C(=O)NC(c2cccc(C(F)(F)F)c2)C(F)(F)F)cc1Cl (racemic) [Ia-194] | HPLC-MS: logP = 3.29; mass | 90 |  |  |
| CC(C)(C#N)NC(=O)c1ccc(/C=C/C(=O)NC(c2cccc(C(F)(F)F)c2)C(F)(F)F)cc1Cl (racemic) [Ia-195] | HPLC-MS: logP = 3.34; mass | 100 | 100 |  |
| O=C(/C=C/c1ccc(C(=O)Nc2ncccn2)c(Cl)c1)NC(c1cccc(C(F)(F)F)c1)C(F)(F)F (racemic) [Ia-197] | HPLC-MS: logP = 2.95; mass | 90 |  |  |
| CCn1c(C(=O)NC(c2cccc(C(F)(F)F)c2)C(F)(F)F)cc2cc(C(=O)NC3CC3)c(Cl)cc21 (racemic) [Ic-26] |  | 100 | 100 |  |
| CCNC(=O)c1ccc(/C=C/C(=O)NC(c2cccc(C(F)(F)F)c2)C(F)(F)F)cc1C(F)(F)F (stereo not shown) [Ia-64] | HPLC-MS: logP = 3.18; mass |  |  | efficacy in % [4]: 100%; efficacy in % ([3]; application rate 500 g/ha): 83% |
| O=C(/C=C/c1ccc(C(=O)NCc2ncccn2)c(C(F)(F)F)c1)NC(c1cccc(C(F)(F)F)c1)C(F)(F)F (stereo not shown) [Ia-127] | HPLC-MS: logP = 3.05; mass | 90 | 100 | efficacy in % (fertile eggs laid) (Boophilus microplus): 100% |
| CN(C)NC(=O)c1ccc(/C=C/C(=O)NC(c2cccc(C(F)(F)F)c2)C(F)(F)F)cc1C(F)(F)F (stereo not shown) [Ia-131] | HPLC-MS: logP = 3.05; mass | 100 | 100 |  |
| COC(=O)C(C)NC(=O)c1ccc(/C=C/C(=O)NC(c2cccc(C(F)(F)F)c2)C(F)(F)F)cc1C(F)(F)F (stereo not shown) [Ia-132] | HPLC-MS: logP = 3.47; mass | 80 |  | efficacy in % (fertile eggs laid) (Boophilus microplus): 100% |
| O=C(/C=C/c1ccc(C(=O)NC2CCOC2=O)c(C(F)(F)F)c1)NC(c1cccc(C(F)(F)F)c1)C(F)(F)F (stereo not shown) [Ia-136] |  | 100 |  | efficacy in % (fertile eggs laid) (Boophilus microplus): 100% |
| C#CC(C)NC(=O)c1ccc(/C=C/C(=O)NC(c2cccc(C(F)(F)F)c2)C(F)(F)F)cc1C(F)(F)F (stereo not shown) [Ia-138] | HPLC-MS: logP = 3.58; mass | 80 | 100 | efficacy in % (fertile eggs laid) (Boophilus microplus): 100% |
| CC(C)NC(=O)c1ccc(/C=C/C(=O)NC(c2cccc(C(F)(F)F)c2)C(F)(F)F)cc1Cl (stereo not shown) [Ia-150] | HPLC-MS: logP = 3.5; mass | 100 |  | efficacy in % (fertile eggs laid) (Boophilus microplus): 100% |
| O=C(/C=C/c1ccc(C(=O)NCc2ncccn2)c(Cl)c1)NC(c1cccc(C(F)(F)F)c1)C(F)(F)F (stereo not shown) [Ia-153] | HPLC-MS: logP = 2.94; mass | 100 |  | efficacy in % (fertile eggs laid) (Boophilus microplus): 100% |
| CC(NC(=O)c1ccc(/C=C/C(=O)NC(c2cccc(C(F)(F)F)c2)C(F)(F)F)cc1Cl)c1ccccn1 (stereo not shown) [Ia-154] | HPLC-MS: logP = 3.45; mass | 90 |  | efficacy in % (fertile eggs laid) (Boophilus microplus): 100% |
| CC(C#N)NC(=O)c1ccc(/C=C/C(=O)NC(c2cccc(C(F)(F)F)c2)C(F)(F)F)cc1Cl (stereo not shown) [Ia-160] | HPLC-MS: logP = 3.23; mass | 100 |  |  |
| COCC(C)NC(=O)c1ccc(/C=C/C(=O)NC(c2cccc(C(F)(F)F)c2)C(F)(F)F)cc1Cl (stereo not shown) [Ia-164] | HPLC-MS: logP = 3.33; mass | 100 |  | efficacy in % (fertile eggs laid) (Boophilus microplus): 100% |
| O=C(/C=C/c1ccc(C(=O)Nc2ccc(Cl)cn2)c(Cl)c1)NC(c1cccc(C(F)(F)F)c1)C(F)(F)F (stereo not shown) [Ia-168] | HPLC-MS: logP = 4.28; mass | 80 | 100 |  |
| O=C(/C=C/c1ccc(C(=O)NCc2ccco2)c(C(F)(F)F)c1)NC(c1cccc(C(F)(F)F)c1)C(F)(F)F (stereo not shown) [Ia-169] | HPLC-MS: logP = 3.63; mass | 100 |  |  |

| Compound | logP ([1]; HPLC-MS) | efficacy in % ([2]; application rate 100 g/ha) [%] | efficacy in % ([3]; application rate 100 g/ha) [%] | further results |
| --- | --- | --- | --- | --- |
| COC(=O)N(C)NC(=O)c1ccc(/C=C/C(=O)NC(c2cccc(C(F)(F)F)c2)C(F)(F)F)cc1C(F)(F)F (stereo not shown) [Ia-170] | HPLC-MS: logP = 3.23; mass | 100 | 83 |  |
| CC(C)NC(=O)c1ccc(/C=C/C(=O)NC(c2cccc(C(F)(F)F)c2)C(F)(F)F)cc1Br (stereo not shown) [Ia-174] | HPLC-MS: logP = 3.48; mass | 100 |  |  |
| O=C(/C=C/c1ccc(C(=O)NC(CF)CF)c(Br)c1)NC(c1cccc(C(F)(F)F)c1)C(F)(F)F (stereo not shown) [Ia-175] | HPLC-MS: logP = 3.35; mass | 100 | 83 |  |
| O=C(/C=C/c1ccc(C(=O)NC2CCC2)c(Br)c1)NC(c1cccc(C(F)(F)F)c1)C(F)(F)F (stereo not shown) [Ia-179] | HPLC-MS: logP = 3.61; mass | 90 | 83 |  |
| O=C(/C=C/c1ccc(C(=O)NCC2CC2)c(Br)c1)NC(c1cccc(C(F)(F)F)c1)C(F)(F)F (stereo not shown) [Ia-180] | HPLC-MS: logP = 3.55; mass | 90 |  |  |
| O=C(/C=C/c1ccc(C(=O)Nc2ccncn2)c(Cl)c1)NC(c1cccc(C(F)(F)F)c1)C(F)(F)F (stereo not shown) [Ia-184] | HPLC-MS: logP = 3.22; mass | 100 |  |  |
| CN(C(=O)c1ccc(/C=C/C(=O)NC(c2cccc(C(F)(F)F)c2)C(F)(F)F)cc1C(F)(F)F)c1ccccn1 (stereo not shown) [Ia-239] | HPLC-MS: logP = 2.07; mass | 90 | 100 |  |
| CCC(=O)NCc1ccc(/C=C/C(=O)NC(c2ccc(F)c(Cl)c2)C(F)(F)F)cc1C(F)(F)F (stereo not shown) [Ia-251] | HPLC-MS: logP = 3.47; mass | 80 | 100 |  |
| CC(=O)N(Cc1ccccn1)Cc1ccc(/C=C/C(=O)NC(c2cccc(C(F)(F)F)c2)C(F)(F)F)cc1F (stereo not shown) [Ia-252] | HPLC-MS: logP = 2.72; mass | 100 | 100 |  |
| CC(=O)N(Cc1ccc(/C=C/C(=O)NC(c2cccc(C(F)(F)F)c2)C(F)(F)F)cc1)Cc1ccccn1 (stereo not shown) [Ia-254] | HPLC-MS: logP = 2.65; mass | 80 |  |  |
| O=C(/C=C/c1ccc(C(=O)NC2CC2)c(C(F)(F)F)c1)NC(c1cccc(SC(F)(F)F)c1)C(F)(F)F (stereo not shown) [Ia-256] | HPLC-MS: logP = 3.51; mass | 100 | 100 |  |
| CCC(=O)NCc1ccc(/C=C/C(=O)NC(c2cccc(C(F)(F)F)c2)C(F)(F)F)cc1F (stereo not shown) [Ia-276] |  | 100 | 100 | logP [1, 5]: HPLC-MS: logP = 3.12; mass |
| CCC(=O)NCc1ccc(/C=C/C(=O)NC(c2ccc(F)c(Cl)c2)C(F)(F)F)cc1F (stereo not shown) [Ia-277] |  | 100 | 100 | logP [1, 5]: HPLC-MS: logP = 3.06; mass |
| O=C(/C=C/c1ccc(C(=O)NC2CC2)c(C(F)(F)F)c1)NC(c1ccc(F)c(Cl)c1)C(F)(F)F (stereo not shown) [Ia-279] |  | 100 | 100 | logP [1, 5]: HPLC-MS: logP = 3.33; mass |
| O=C(/C=C/c1ccc(C(=O)NC2CC2)c(C(F)(F)F)c1)NC(c1ccc(F)c(C(F)(F)F)c1)C(F)(F)F (stereo not shown) [Ia-280] |  | 100 | 100 | logP [1, 5]: HPLC-MS: logP = 3.46; mass |
| CCC(=O)NCc1ccc(/C=C/C(=O)NC(c2ccc(F)c(C(F)(F)F)c2)C(F)(F)F)cc1 (stereo not shown) [Ia-282] |  | 90 | 100 | logP [1, 5]: HPLC-MS: logP = 3.11; mass |
| O=C(NCc1ccc2oc(C(=O)NC(c3cccc(C(F)(F)F)c3)C(F)(F)F)cc2c1)c1ccccn1 (stereo not shown) [Ic-12] |  |  |  | logP [1, 6]: HPLC-MS: logP = 3.62; mass; efficacy in % ([2]; application rate 500 g/ha): 80% |
| C/C(=C\C(=O)NC(c1cccc(C(F)(F)F)c1)C(F)(F)F)c1ccc(C(=O)NC(C)C)c(C(F)(F)F)c1 (stereo not shown) [Id-4] |  | 90 |  | logP [1, 6]: HPLC-MS: logP = 3.75; mass |

Reference: patent publication US8889878B2, “Haloalky-substituted amides as insecticides and acaricides” (Bayer CropScience AG, priority 2009, dated 2014)
